In patent US20230183292A1, “IMMUNOMODULATORS” (priority 2020, published 2023):
Starred links: 1 amine or outer side, 2 acyl side, 3 side chain; linkers in the order of their positions; H or OH if unused. Positions of bridges follow the written chain, without caps; N, C: chain ends. Non-standard residues stand in square brackets, D forms with d. Residues, ends and D or L forms follow the SMILES beside them. X6 = C[C@H](CCC(=O)O)[C@H]1CC[C@H]2[C@@H]3C(=O)C[C@@H]4CC(NCC[C@H](N[*:1])C(=O)[*:2])CC[C@]4(C)[C@H]3CC(=O)[C@]12C; X3 = C[C@H](CCC(=O)O)[C@H]1CC[C@H]2[C@@H]3C(=O)C[C@@H]4CC(NC[C@H](N[*:1])C(=O)[*:2])CC[C@]4(C)[C@H]3CC(=O)[C@]12C; X26 = C[C@H](CCC(=O)O)[C@H]1CC[C@H]2[C@@H]3C(=O)C[C@@H]4CC(NCC[C@H](N[*:1])C(=O)[*:2])CC[C@]4(C)[C@H]3CC[C@]12C; X25 = C[C@H](CCC(=O)O)[C@H]1CC[C@H]2[C@@H]3C(=O)C[C@@H]4CC(NC[C@H](N[*:1])C(=O)[*:2])CC[C@]4(C)[C@H]3CC[C@]12C; X17 = C[C@H](CCC(=O)O)[C@H]1CC[C@H]2[C@@H]3CC[C@@H]4CC(NC[C@H](N[*:1])C(=O)[*:2])CC[C@]4(C)[C@H]3CC[C@]12C; Trp(1-CH2COOH) = N[C@@H](Cc1cn(CC(=O)O)c2ccccc12)C(=O)O; X28 = O=C(C[C@@H](Cc1ccc(O)cc1)C(=O)[*:1])C[*:2]; Hyp = O=C(O)[C@@H]1C[C@@H](O)CN1; NMeNle = CCCC[C@H](NC)C(=O)O; NMeA = CN[C@@H](C)C(=O)O; Dab = NCC[C@H](N)C(=O)O

Target: T1, PD-1/PD-L1 (Homo sapiens, UniProt Q9NZQ7)
T1 construct: TVMV protease site (C); made in house; host or cells: HEK293T cells
T1 sequence (Q9NZQ7 18-239): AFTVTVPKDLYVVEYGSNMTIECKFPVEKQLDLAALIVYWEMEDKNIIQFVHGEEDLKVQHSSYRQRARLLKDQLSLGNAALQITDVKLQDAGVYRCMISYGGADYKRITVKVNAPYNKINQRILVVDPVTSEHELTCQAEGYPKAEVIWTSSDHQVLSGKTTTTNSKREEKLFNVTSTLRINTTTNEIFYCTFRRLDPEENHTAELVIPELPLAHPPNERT
Assay: PD-1/PD-L1 Homogenous Time-Resolved Fluorescence (HTRF) binding assay
Settings: PD-L1-His 10 nM, PD-1-Ig 20 nM; read-out: HTRF IC50
Outline: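 Inhibitors pre-incubated 15 min with PD-L1-His (10 nM final) in dPBS, 0.1% BSA, 0.05% Tween-20, then 15 min with PD-1-Ig (20 nM final). Eu-cryptate anti-Ig (1 nM) and APC anti-His (20 nM) added, 30 min equilibration; HTRF 665/620 nm ratio. Human ECD proteins from HEK293T.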

| Compound | IC50 [nM] |
| --- | --- |
| CCCC[C@H]1C(=O)N(C)[C@@H](CCCC)C(=O)N[C@@H](CC(C)C)C(=O)N[C@H](C(=O)NCC(N)=O)CSCC(=O)N[C@@H](Cc2ccc(O)cc2)C(=O)N(C)[C@@H](C)C(=O)N[C@@H](CC(N)=O)C(=O)N2CCC[C@H]2C(=O)N[C@@H](CNC2CC[C@@]3(C)[C@H](CC(=O)[C@@H]4[C@@H]3CC(=O)[C@]3(C)[C@@H]([C@H](C)CCC(=O)O)CC[C@@H]43)C2)C(=O)N[C@@H](CC(C)C)C(=O)N2C[C@H](O)C[C@H]2C(=O)N[C@@H](Cc2c[nH]c3ccccc23)C(=O)N[C@@H](CCNC2CC[C@@]3(C)[C@H](CC(=O)[C@@H]4[C@@H]3CC(=O)[C@]3(C)[C@@H]([C@H](C)CCC(=O)O)CC[C@@H]43)C2)C(=O)N[C@@H](Cc2cn(CC(=O)O)c3ccccc23)C(=O)N1C (some centres unmarked) [Example 3003] ({CH2CO}-Y[NMeA]NP[X3]L[Hyp]W[X6][Trp(1-CH2COOH)][NMeNle][NMeNle]LCG-NH2; thioether N-14) | 17 |
| CCCC[C@H]1C(=O)N(C)[C@@H](CCCC)C(=O)N[C@@H](CC(C)C)C(=O)N[C@H](C(=O)NCC(N)=O)CSCC(=O)C[C@@H](Cc2ccc(O)cc2)C(=O)N(C)[C@@H](C)C(=O)N[C@@H](CC(N)=O)C(=O)N2CCC[C@H]2C(=O)N[C@@H](CNC2CC[C@@]3(C)[C@H](CC(=O)[C@@H]4[C@@H]3CC[C@]3(C)[C@@H]([C@H](C)CCC(=O)O)CC[C@@H]43)C2)C(=O)N[C@@H](CC(C)C)C(=O)N2C[C@H](O)C[C@H]2C(=O)N[C@@H](Cc2c[nH]c3ccccc23)C(=O)N[C@@H](CCN)C(=O)N[C@@H](Cc2cn(CC(=O)O)c3ccccc23)C(=O)N1C (some centres unmarked) [Example 3004] ([NMeA]NP[X25]L[Hyp]W[Dab][Trp(1-CH2COOH)][NMeNle][NMeNle]LCG-NH2; linker N-13 via X28) | 41 |
| CCCC[C@H]1C(=O)N(C)[C@@H](CCCC)C(=O)N[C@@H](CC(C)C)C(=O)N[C@H](C(=O)NCC(N)=O)CSCC(=O)N[C@@H](Cc2ccc(O)cc2)C(=O)N(C)[C@@H](C)C(=O)N[C@@H](CC(N)=O)C(=O)N2CCC[C@H]2C(=O)N[C@@H](CNC2CC[C@@]3(C)[C@H](CC(=O)[C@@H]4[C@@H]3CC(=O)[C@]3(C)[C@@H]([C@H](C)CCC(=O)O)CC[C@@H]43)C2)C(=O)N[C@@H](CC(C)C)C(=O)N2C[C@H](O)C[C@H]2C(=O)N[C@@H](Cc2c[nH]c3ccccc23)C(=O)N[C@@H](CCN)C(=O)N[C@@H](Cc2cn(CC(=O)O)c3ccccc23)C(=O)N1C (some centres unmarked) [Example 3005] ({CH2CO}-Y[NMeA]NP[X3]L[Hyp]W[Dab][Trp(1-CH2COOH)][NMeNle][NMeNle]LCG-NH2; thioether N-14) | 13 |
| CCCC[C@H]1C(=O)N(C)[C@@H](CCCC)C(=O)N[C@@H](CC(C)C)C(=O)N[C@H](C(=O)NCC(N)=O)CSCC(=O)N[C@@H](Cc2ccc(O)cc2)C(=O)N(C)[C@@H](C)C(=O)N[C@@H](CC(N)=O)C(=O)N2CCC[C@H]2C(=O)N[C@@H](CNC2CC[C@@]3(C)[C@H](CC(=O)[C@@H]4[C@@H]3CC[C@]3(C)[C@@H]([C@H](C)CCC(=O)O)CC[C@@H]43)C2)C(=O)N[C@@H](CC(C)C)C(=O)N2C[C@H](O)C[C@H]2C(=O)N[C@@H](Cc2c[nH]c3ccccc23)C(=O)N[C@@H](CCNC2CC[C@@]3(C)[C@H](CC(=O)[C@@H]4[C@@H]3CC[C@]3(C)[C@@H]([C@H](C)CCC(=O)O)CC[C@@H]43)C2)C(=O)N[C@@H](Cc2cn(CC(=O)O)c3ccccc23)C(=O)N1C (some centres unmarked) [Example 3006] ({CH2CO}-Y[NMeA]NP[X25]L[Hyp]W[X26][Trp(1-CH2COOH)][NMeNle][NMeNle]LCG-NH2; thioether N-14) | 11 |
| CCCC[C@H]1C(=O)N(C)[C@@H](CCCC)C(=O)N[C@@H](CC(C)C)C(=O)N[C@H](C(=O)NCC(N)=O)CSCC(=O)N[C@@H](Cc2ccc(O)cc2)C(=O)N(C)[C@@H](C)C(=O)N[C@@H](CC(N)=O)C(=O)N2CCC[C@H]2C(=O)N[C@@H](CNC2CC[C@@]3(C)[C@H](CC[C@@H]4[C@@H]3CC[C@]3(C)[C@@H]([C@H](C)CCC(=O)O)CC[C@@H]43)C2)C(=O)N[C@@H](CC(C)C)C(=O)N2C[C@H](O)C[C@H]2C(=O)N[C@@H](Cc2c[nH]c3ccccc23)C(=O)N[C@@H](CCN)C(=O)N[C@@H](Cc2cn(CC(=O)O)c3ccccc23)C(=O)N1C (some centres unmarked) [Example 3007] ({CH2CO}-Y[NMeA]NP[X17]L[Hyp]W[Dab][Trp(1-CH2COOH)][NMeNle][NMeNle]LCG-NH2; thioether N-14) | 12 |
